The compounds below were run against T1, F508del CFTR (Homo sapiens, UniProt P13569, DEL508-508) (assay: Equivalent current assay in primary CF airway epithelial cells (Corrector Activity, NAUC normalized to 3 μM VX809)). Details: NAUC as % of positive control (VX-809).
T1 construct: Primary CF airway epithelial cells were obtained from the UNC Cystic Fibrosis Tissue Procurement and Cell Culture Core; host or cells: primary CF airway epithelial cells
Assay type: cell-based
Summary of the method: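 Readout is NAUC: current area from forskolin/potentiator addition until CFTR-172, minus vehicle, relative to 3 μM VX809 (=1.0). Cells were primary CF epithelia at air-liquid interface ≥4 weeks, given basolateral compound for 24 h at 37° C; median of n≥4 replicates, sigmoid fit with nH fixed at 1.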

T1 sequence (P13569 with tags, fused parts or gaps DEL508-508): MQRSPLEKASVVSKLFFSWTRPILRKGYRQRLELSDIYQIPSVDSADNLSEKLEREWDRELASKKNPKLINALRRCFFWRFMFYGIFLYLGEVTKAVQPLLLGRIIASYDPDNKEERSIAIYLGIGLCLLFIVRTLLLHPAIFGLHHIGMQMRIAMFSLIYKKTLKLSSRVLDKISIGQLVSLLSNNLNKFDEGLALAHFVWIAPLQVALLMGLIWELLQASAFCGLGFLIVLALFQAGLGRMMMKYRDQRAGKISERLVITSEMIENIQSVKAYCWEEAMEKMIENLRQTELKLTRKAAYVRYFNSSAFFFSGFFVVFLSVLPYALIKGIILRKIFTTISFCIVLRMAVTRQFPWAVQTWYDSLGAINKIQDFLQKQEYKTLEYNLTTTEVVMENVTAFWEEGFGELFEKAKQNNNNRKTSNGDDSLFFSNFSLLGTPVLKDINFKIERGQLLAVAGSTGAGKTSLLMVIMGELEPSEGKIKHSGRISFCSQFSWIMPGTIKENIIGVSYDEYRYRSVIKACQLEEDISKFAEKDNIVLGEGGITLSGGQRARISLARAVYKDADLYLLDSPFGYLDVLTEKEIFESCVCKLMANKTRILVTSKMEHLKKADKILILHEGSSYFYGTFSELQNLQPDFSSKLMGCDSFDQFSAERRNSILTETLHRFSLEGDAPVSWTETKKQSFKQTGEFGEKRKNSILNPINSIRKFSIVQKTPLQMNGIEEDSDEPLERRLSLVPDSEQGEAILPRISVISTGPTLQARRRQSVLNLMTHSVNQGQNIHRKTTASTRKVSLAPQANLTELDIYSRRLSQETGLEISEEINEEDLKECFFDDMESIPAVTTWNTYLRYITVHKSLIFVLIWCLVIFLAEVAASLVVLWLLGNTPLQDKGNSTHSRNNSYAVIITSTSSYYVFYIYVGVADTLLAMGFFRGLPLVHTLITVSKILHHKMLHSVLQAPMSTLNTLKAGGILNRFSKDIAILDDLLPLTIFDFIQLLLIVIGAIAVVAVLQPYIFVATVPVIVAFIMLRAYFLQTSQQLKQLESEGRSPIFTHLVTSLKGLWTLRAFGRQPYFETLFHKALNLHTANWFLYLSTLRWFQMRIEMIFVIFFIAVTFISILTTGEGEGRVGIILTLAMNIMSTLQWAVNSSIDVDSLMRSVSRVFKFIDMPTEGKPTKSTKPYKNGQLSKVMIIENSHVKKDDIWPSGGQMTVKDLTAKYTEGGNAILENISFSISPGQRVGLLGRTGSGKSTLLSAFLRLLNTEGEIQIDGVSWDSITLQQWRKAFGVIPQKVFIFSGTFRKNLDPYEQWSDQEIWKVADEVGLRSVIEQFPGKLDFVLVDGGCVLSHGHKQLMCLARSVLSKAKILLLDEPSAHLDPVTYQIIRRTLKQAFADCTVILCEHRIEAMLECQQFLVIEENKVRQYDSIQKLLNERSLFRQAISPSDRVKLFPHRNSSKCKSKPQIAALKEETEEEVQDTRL

SMILES	Corr Activity (NAUC)
CCOC(=O)c1ccc(-c2nn(CC(=O)N(CC)c3ccc4c(c3)OC(F)(F)O4)c(=O)c3ccoc23)cc1C#N [Example 96]	+++ (NAUC>70% of positive control)
CN(C(=O)Cn1nc(-c2cccc(C(C)(C)C)c2)c2oc(C(=O)NC(C)(C)C)cc2c1=O)c1ccc2c(c1)OC(F)(F)O2 [Example 126]	+++ (NAUC>70% of positive control)
O=C(Cn1nc(-c2ccc(C(F)(F)F)c(Cl)c2)c2[nH]cnc2c1=O)N(c1ccc2c(c1)OC(F)(F)O2)C1CC1 [Example 448]	+ (NAUC<40% of positive control)
Cc1cc2c(=O)n(CC(=O)N(C)c3ccc4c(c3)OC(F)(F)O4)nc(-c3cc(Cl)cc(Cl)c3)c2o1 [Example 70]	+++ (NAUC>70% of positive control)
CCN(C(=O)Cn1nc(-c2cccc(C#N)c2)c2oc3ccccc3c2c1=O)c1ccc2c(c1)OC(F)(F)O2 [Example 159]	+++ (NAUC>70% of positive control)
CCN(C(=O)Cn1nc(-c2cc(Cl)cc(C#N)c2)c2oc(C(=O)NC(C)(C)C)cc2c1=O)c1ccc2c(c1C)OC(F)(F)O2 [Example 142]	++ (NAUC 70-40% of positive control)
CN(C(=O)Cn1nc(-c2cccc(C#N)c2)c2oc(C3CCC3)cc2c1=O)c1ccc2c(c1)OC(F)(F)O2 [Example 233]	++ (NAUC 70-40% of positive control)
CCN(C(=O)Cn1nc(-c2cccc(C#N)c2)c2c(c1=O)CCC2)c1ccc2nc(C)oc2c1 [Example 50]	+++ (NAUC>70% of positive control)
CN(C(=O)Cn1nc(-c2cccc(C#N)c2)c2oc(C(=O)NC(C)(C)C)cc2c1=O)c1ccc2c(c1F)OC(F)(F)O2 [Example 148]	+++ (NAUC>70% of positive control)
CCN(C(=O)Cn1nc(-c2ccc(C(F)(F)F)c(C(F)(F)F)c2)c2[nH]cnc2c1=O)c1ccc2c(c1)OC(F)(F)O2 [Example 345]	+ (NAUC<40% of positive control)
O=C(Cn1nc(-c2cccc(Cl)c2)c2[nH]cnc2c1=O)N1CCCc2c1ccc1c2OC(F)(F)O1 [Example 374]	+++ (NAUC>70% of positive control)
CCN(C(=O)Cn1nc(-c2cc(Cl)cc(Cl)c2)c2oc(C)cc2c1=O)c1ccc2c(c1)OC(F)(F)O2 [Example 73]	+++ (NAUC>70% of positive control)
CCN(C(=O)Cn1nc(-c2ccc3c(c2)ncn3-c2ccccc2)c2[nH]cnc2c1=O)c1ccc2c(c1)OC(F)(F)O2 [Example 313]	++ (NAUC 70-40% of positive control)
CN(C(=O)Cn1nc(-c2cc(F)cc(F)c2)c2occc2c1=O)c1ccc2c(c1)OC(F)(F)O2 [Example 41]	+++ (NAUC>70% of positive control)
CCN(C(=O)Cn1nc(-c2cc(Cl)cc(C#N)c2)c2oc(C3CCC3)cc2c1=O)c1ccc2c(c1)OC(F)(F)O2 [Example 237]	++ (NAUC 70-40% of positive control)
CCN(C(=O)Cn1nc(-c2cc(F)cc(F)c2)c2occc2c1=O)c1ccc2c(c1)OC(F)(F)O2 [Example 175]	+++ (NAUC>70% of positive control)
CCN(C(=O)Cn1nc(-c2cccc(C#N)c2)c2[nH]cnc2c1=O)c1ccc2c(c1F)OC(F)(F)O2 [Example 250]	+++ (NAUC>70% of positive control)
Cc1nc2ccc(N(C)C(=O)Cn3nc(-c4cccc(C#N)c4)c4oc(C5CCC5)cc4c3=O)cc2o1 [Example 232]	++ (NAUC 70-40% of positive control)
Cc1nc2ccc(N(C)C(=O)Cn3nc(-c4cccc(Cl)c4)c4oc(C5CC5)cc4c3=O)cc2o1 [Example 218]	+++ (NAUC>70% of positive control)
CCN(C(=O)Cn1nc(-c2cc(C(F)(F)F)cc(C(F)(F)F)c2)c2[nH]cnc2c1=O)c1ccc2c(c1)OC(F)(F)O2 [Example 260]	+ (NAUC<40% of positive control)
